The source of these data is paper PMC9453727 (Cell Discovery, 2022).

The nature of one data set: in vitro. Particulars: PAMPA.
For data set [1] the following is noted: in vivo, po; cited from earlier work.
[2] abbreviates: pH 5, permeability class PAMPA-GIT.

Usually Papp stands for the rate of passage across a membrane or cell layer, normalised by area and donor concentration. Read a high Papp as ready permeation. In “in vitro” (setting [2]), `Cc1cc(=O)n(-c2ccccc2)n1C` [Antipyrine] displayed an apparent permeability coefficient (Papp) of less than 1 ×10⁻⁶ cm/s.
Consider `NC(=O)N1c2ccccc2C=Cc2ccccc21` [Carbamazepine], for which the Papp was 135 ×10⁻⁶ cm/s in the data set “in vitro” (pH 5, Papp PAMPA-GIT, pH 5.0); greater than 20 ×10⁻⁶ cm/s in the data set “in vitro” (setting [2]); 158 ×10⁻⁶ cm/s in the data set “in vitro” (pH 6.2, Papp PAMPA-GIT, pH 6.2); 160 ×10⁻⁶ cm/s in the data set “in vitro” (pH 7.4, Papp PAMPA-GIT, pH 7.4).
For `CC(C)(C)[C@H](NC(=O)C(F)(F)F)C(=O)N1C[C@H]2[C@@H]([C@H]1C(=O)N[C@H](C#N)C[C@@H]1CCNC1=O)C2(C)C` [nirmatrelvir], in data set [1], the half-life is ~ 2 h.
